According to US10220053B2, “Methods and compositions for modulating cancer stem cells” (University of Canberra, priority 2013, dated 2019):
Entries after “also recorded” stand apart in the source; their conditions may differ.

Assays:
MDA-MB 231 cells [1] = test: FACS analysis of CD44high CD24low CSC subpopulation, Basal/metastatic model; type: cell-based, human; conditions: NCD38 5 μM, FIGS. 7A and B
Description: Cells from each well/flask were harvested by means of trypsin treatment followed by two washes with PBS. Washed cells then re-suspended in an antibody cocktail consisting anti-CD44-APC, anti-CD24-PE antibodies (details in Table 5) and Hoechst 33258 dye (final dilution of 1:1000) (Invitrogen, Carlsbad, Calif.) in 1% FCS-PBS solution. Cells re-suspended in antibody cocktail were incubated for 20 minutes at 4° C. Cells were next washed twice with PBS and re-suspended in 1% FCS-PBS solution (volume based on cell number) and kept on ice until analyzed by FACS. Forward scatter (FSC) and side scatter parameters were selected with FITC fluorochrome excited by 488 nm argonion laser, PE fluorochrome excited by 488 nm and Hoechst fluorochrome excited by 350 nm helium-cadmium UV laser.
Flow Cytometry data was produced using either BD FACS LSR Flow Cytometer (Becton Dickinson Biosciences) or BD FACS Aria™ II Flow Cytometer (Becton Dickinson Biosciences) and analyzed using the data acquisition software CellQuest Pro (Becton Dickinson Biosciences) and FlowJo (Tree Star Inc., Ashland, Oreg.) software at the MCRF facility, JCSMR, ANU, Canberra, Australia. Single colour controls were used to set compensation parameters. Isotype controls were used for all corresponding primary antibodies in each experiment. […]

MCF-7 cells [2] = test: Mammosphere assay; type: cell-based, human; conditions: MCF-IM model, NCD38 5 μM for 17 hr prior to PMA 0.65 ng/ml for 6 days, mammospheres larger than 60 μm counted
Description: The following mammosphere culture media components were purchased from StemCell Technologies Inc., BC, Canada: Mammocult Basal medium (Human) (catalogue number-05621), Mammocult Proliferation Supplements (Human) (catalogue number-05622), heparin (catalogue number-07904) and hydrocortisone (catalogue number-[…]). Hydrocortisone powder was freshly dissolved into mammocult basal medium to get 10^−4M solution on the day of experiment. 50 mL of Mammocult complete media was then prepared by addition of 45 mL Mammocult basal medium, 5 mL mammocult proliferation supplements, 100 μL of the 0.2% heparin stock, 500 μL of 10^−4M stock of hydrocortisone and 50 μL of the PNS. Mammocult complete media was either used on same day or stored for not more than 7 days at 4° C.
MCF-7 cells were grown in a 175 cm^2 cell culture flask and harvested using a cell scraper (Zellschaber, Switzerland) or FACS sorted as specified below. Importantly trypsin treatment was never used for harvesting cells as it interferes with the mammosphere assay. Harvested cells were then re-suspended in 1 mL mammocult complete media and centrifuged at 500×g for 3 minutes at 20° C. The cell pellet was then re-suspended in 1 mL mammocult complete media before counting the cells on the Vi-CELL counter. […] Mammospheres larger than 60 μm were counted per well on day 7 and pictures were taken with an Olympus microscope. […]

MCF-7 cells [3] = test: FACS analysis of CD44high CD24low CSC-like subpopulation, MCF-IM model (PMA-stimulated MCF-7); type: cell-based, human; conditions: NCD38 5 μM for 17 hr prior to PMA 0.65 ng/μl for 60 hours, FIGS. 6A and B
Description: MCF-7 cells were seeded one day before stimulation at a set density according to the experimental demand. Potential inducers of EMT were tested including Phorbol 12-Myristate 13-acetate (PMA) (Sigma-Aldrich, St. Louis, Mo.), and TGF β (R&D systems, Minneapolis, Minn.) at various concentrations and incubation length as specified in Table 6.
Cells from each well/flask were harvested by means of trypsin treatment followed by two washes with PBS. Washed cells then re-suspended in an antibody cocktail consisting anti-CD44-APC, anti-CD24-PE antibodies (details in Table 5) and Hoechst 33258 dye (final dilution of 1:1000) (Invitrogen, Carlsbad, Calif.) in 1% FCS-PBS solution. Cells re-suspended in antibody cocktail were incubated for 20 minutes at 4° C. Cells were next washed twice with PBS and re-suspended in 1% FCS-PBS solution (volume based on cell number) and kept on ice until analyzed by FACS. […]
Flow Cytometry data was produced using either BD FACS LSR Flow Cytometer (Becton Dickinson Biosciences) or BD FACS Aria™ II Flow Cytometer (Becton Dickinson Biosciences) and analyzed using the data acquisition software CellQuest Pro (Becton Dickinson Biosciences) and FlowJo (Tree Star Inc., Ashland, Oreg.) software at the MCRF facility, JCSMR, ANU, Canberra, Australia. […]

MDA-MB 231 cells [4] = test: Phase contrast microscopy of EMT/MET, Basal/metastatic model; type: cell-based, human; conditions: NCD38 5 μM, FIG. 7C
Description: Phase contrast microscopy was utilized for EMT and wound healing assays under 10× or 20× magnification of Olympus Fluorescence 1×71 microscope. Images were captured and analyzed as described above except that wound healing assay pictures were also analyzed by Image J software (Free software in Public domain developed by NIH).

MDA-MB-231 cells [5] = test: In vivo murine xenograft model, CSC subpopulation of tumors (FACS, CD44 mRNA); design: species or system BALB/c female nude mice; conditions: pargyline along with docetaxel
Description: (§1) To monitor the effect of LSD1 inhibitors in vivo on tumor recurrence, in vivo murine xenograft model of breast cancer recurrence was used. The MDA-MB 231 cell line model, which is one of the most robust and well-established models was used in 6 weeks old BALB/c female nude mice. 5×10^6 MDA MB 231 cells were injected in the mammary fat pad of each mouse. […] Once the tumors reach 50 mm^3 volume size (determined by caliper measurement), treatments were initiated. Mice were monitored until tumors reach 500 mm^3 and sacrificed for collection of tumors. Each treatment group consisted 14 mice each (5 mice for tumor growth curve+3 mice each for tumor collection at 3 time points-treatment start day-week 0, chemotherapy tumor reduction-approx. week 4 and until tumor reach 500 mm^3 approx. week 7). Tumor volumes were measured every week and three mice from each group were sacrificed for IHC, FACS, and RNA extraction at above mentioned three time points.
At week 7 post treatment, the remaining tumor samples were collected for flow cytometry with CD44, CD24 and Hoechst staining. Remaining sample was used for RNA extraction.
1. Tumors were collected in 5 mL of DMEM supplemented with 2.5% FCS in 15 mL tubes.
8. A total number of 2×10^5 cells were stained for CD44-APC, CD24-PE and Hoechst. […]

MDA-MB-231 cells [6] = test: In vivo murine xenograft model, tumor size; design: species or system BALB/c female nude mice
Description: as §1
5. Mice were then injected with 50 μL of the Matrigel™+5×10^6 cell suspension in PBS using 26″ needles and isoflurane as an anesthetic. Each 50 μL of the mixture contains 2×10^6 MDA-MB-231 cells.
7. Measurements for tumor volume began at day 7 post injection of MDA-MB-231. Then the tumor volumes were measured daily till 15 May 2014.
Treatment of mice started at day 16 post injection of MDA-MB-231, where tumors roughly reached a volume of 50 mm^3.
Group B: 4 mg/kg of docetaxel (11 mice)
Group C: 100 mg/kg of pargyline (11 mice)
Group D: 4 mg/kg of docetaxel+100 mg/kg of pargyline (11 mice)

`O=C(N[C@@H](CCCCN[C@@H]1C[C@H]1c1ccccc1)C(=O)NCc1cccc(Cl)c1)c1ccc(-c2ccccc2)cc1.O=C(O)C(F)(F)F` [NCD38] was tested, and the “CSC formation (CD44high CD24low CSC-like subpopulation) by FACS” value (MDA-MB 231 cells [1]) was “inhibits CD44 high CD24 low-CSC-like subpopulation”, the “CSC formation (CD44high CD24low CSC-like subpopulation) by FACS” value (MDA-MB 231 cells [1]; listed as NCD-38) was “decrease of CSC formation” and the “CSC formation monitored by mammosphere assay” value (MCF-7 cells [2]) was “reduce mammosphere formation”. The “CSC formation monitored by mammosphere assay” value (MCF-7 cells [2]; listed as NCD-38) was “inhibition CSC formation”, the “CSC formation (CD44high CD24low CSC-like subpopulation) monitored by FACS” value (MCF-7 cells [3]) was “inhibits CD44 high CD24 low-CSC-like subpopulation” and the “CSC formation (CD44high CD24low CSC-like subpopulation) monitored by FACS” value (MCF-7 cells [3]; listed as NCD-38) was “inhibition CSC formation”. For the same compound, the “mesenchymal to epithelial transition / EMT (phase contrast microscopy)” value (MDA-MB 231 cells [4]) was “inhibit EMT” and the “mesenchymal to epithelial transition / EMT (phase contrast microscopy)” value (MDA-MB 231 cells [4]; listed as NCD-38) was “conversion of mesenchymal cells in to epithelial cells”.

In the case of `C#CCN(C)Cc1ccccc1` [pargyline], the “CSC subpopulation measured by transcript (CD44 mRNA expression of dissected tumors)” value (MDA-MB-231 cells [5]; real-time PCR, FIG. 10B) is reported as “reduced CSC subpopulation”, the “CSC subpopulation of tumors measured by FACS” value (MDA-MB-231 cells [5]; seven weeks of treatment, FIG. 10A) is reported as “reduced CSC subpopulation; also recorded: reduces cancer stem cells” and the tumor size (MDA-MB-231 cells [6]; pargyline 100 mg/kg in combination with docetaxel 4 mg/kg, mice xenograft, FIG. 8 (week four), FIG. 9) is reported as “reduced tumor size; also recorded: reduces size of tumor”. For the same compound, the tumor volume (MDA-MB-231 cells [6]; pargyline in combination with docetaxel, after seven weeks of treatment initiation, FIG. 9B) was “reduces volume and weight of tumor” and the tumor weight (MDA-MB-231 cells [6]; pargyline in combination with docetaxel, after seven weeks of treatment, FIG. 9A) was “reduces volume and weight of tumor”.
